Earlier results, collected in article PMC10425210 (The Journal of Clinical Investigation, 2023).

Assays:
[1] = design: method as in PMID 29008798; settings: cited from earlier work
SHIV109CP3 = tested on: SHIV109CP3; design: method as in PMID 31175822; settings: cited from earlier work

In the case of `C#C[C@]1(CO)O[C@@H](n2cnc3c(N)nc(F)nc32)C[C@@H]1O` [islatravir], the “adverse finding during clinical development” value [1] is listed as “unanticipated lymphopenia” and the prevention of infection (SHIV109CP3) is listed as “proven efficacy at preventing infection”.
